Source: paper PMC7774954, “Interactomic affinity profiling by holdup assay: Acetylation and distal residues impact the PDZome-binding specificity of PTEN phosphatase” (PLoS ONE, 2020)
*1 amine or outer side, *2 acyl side, *3 side chain or, on linkers, in order; H or OH if unused. Where a SMILES comes first, the peptide text is derived from it. The star is where a group is joined. X1 = O=C(CCCC[C@@H]1SC[C@@H]2NC(=O)N[C@@H]21)NCCCOCCOCCOCCCN*; Suc = O=C(CCC(=O)[*:2])[*:1]

How the values were obtained:
SDCBP PDZ 1 = biological target: T1, SDCBP PDZ 1 (Homo sapiens, UniProt O00560); test: Holdup assay, SDCBP-1; format: binding; conditions: PDZ domain SDCBP-1
T1 construct: made in house; host or cells: E. coli
T1 sequence (O00560 114-193 limits assumed): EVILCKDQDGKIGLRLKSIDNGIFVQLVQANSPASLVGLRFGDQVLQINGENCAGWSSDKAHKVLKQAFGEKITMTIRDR
Experimental: The holdup assay was performed on a Tecan freedom Evo200 robot with 384-well plates in singlicate for the three 11-mer PTEN variants and the 13-mer PTEN peptide as described in [31, 32]. Briefly, prior to interaction assay, 2.5 μL of streptavidin resin was saturated in each well with 20 μL of biotinylated PBM peptides (42 μM) and then washed twice with an excess of free biotin, while the reference resin was incubated only with biotin. Right before the holdup experiment, the PDZ library was spiked with an internal standard of lysozyme. Then, the biotin- or PBM-saturated resin was incubated, each in a distinct well of a 384-well plate, with complete cell lysates diluted so that the concentration of the tag-PDZ present in the crude extract is adjusted at 4 μM. After a sufficient time to reach complex equilibrium (15 min.), a fast and mild filtration step is performed and the tag-PDZ concentrations were measured by capillary electrophoresis instrument (LabChip GXII, PerkinElmer, Massachusets, USA). Standard markers were used to convert migration time into molecular weight on the LabChip software and inappropriate molecular weight markers were corrected or excluded.
For filtered data, the BI was extracted with the following equation (Eq 1) that estimates the depleted fraction after superimposition of the sample and reference electropherograms: BI=Iref−Ilig/Iref (1) where Iref and Ilig are the intensities of the tag-PDZ peaks measured, for each PDZ domain/PBM peptide interaction pair, in the biotin reference and the PBM electropherograms, respectively.
BIs were transformed into dissociation constants (KD) using the following formula: KD=([PDZtot]−BI·[PDZtot])·([PBMtot]−BI·[PDZtot])/BI·[PDZtot] (2) where [PDZtot] and [PBMtot] correspond to the total concentrations of the PDZ domain (usually around 4 μM) and the PBM peptide used during the assay. Since the PBMtot concentration in the resin during the holdup assay parameter may differ from one peptide to another and remains unknown, it is impossible to directly convert BI values into KD constants. We systematically determined the KD constants for a subset of PDZ/PBM pairs by competitive FP. […] For each PBM, the average peptide concentration was calculated after outlier rejection based on the absolute distances from the median as compared to three times the standard deviation (3σ rule), with never more than 2 values rejected.

INADL-3 = test: Holdup assay, INADL-3; format: binding, human
LNX2-2 = biological target: T2, LNX2-2 (Homo sapiens, UniProt Q8N448); test: Holdup assay, LNX2-2; format: binding
T2 sequence (Q8N448 339-422): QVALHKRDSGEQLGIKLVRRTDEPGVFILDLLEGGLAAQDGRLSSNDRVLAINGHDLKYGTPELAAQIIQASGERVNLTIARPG

MAGI2-4 = MAGI2-4 (Homo sapiens, UniProt Q86UL8); test: Holdup assay, MAGI2-4; format: binding
MAGI3-1 = test: Holdup assay, MAGI3-1; format: binding, human
MAGI3-6 = biological target: T3, MAGI3-6 (Homo sapiens, UniProt Q5TCQ9); test: Holdup assay, MAGI3-6; format: binding
T3 sequence (Q5TCQ9 1-1481): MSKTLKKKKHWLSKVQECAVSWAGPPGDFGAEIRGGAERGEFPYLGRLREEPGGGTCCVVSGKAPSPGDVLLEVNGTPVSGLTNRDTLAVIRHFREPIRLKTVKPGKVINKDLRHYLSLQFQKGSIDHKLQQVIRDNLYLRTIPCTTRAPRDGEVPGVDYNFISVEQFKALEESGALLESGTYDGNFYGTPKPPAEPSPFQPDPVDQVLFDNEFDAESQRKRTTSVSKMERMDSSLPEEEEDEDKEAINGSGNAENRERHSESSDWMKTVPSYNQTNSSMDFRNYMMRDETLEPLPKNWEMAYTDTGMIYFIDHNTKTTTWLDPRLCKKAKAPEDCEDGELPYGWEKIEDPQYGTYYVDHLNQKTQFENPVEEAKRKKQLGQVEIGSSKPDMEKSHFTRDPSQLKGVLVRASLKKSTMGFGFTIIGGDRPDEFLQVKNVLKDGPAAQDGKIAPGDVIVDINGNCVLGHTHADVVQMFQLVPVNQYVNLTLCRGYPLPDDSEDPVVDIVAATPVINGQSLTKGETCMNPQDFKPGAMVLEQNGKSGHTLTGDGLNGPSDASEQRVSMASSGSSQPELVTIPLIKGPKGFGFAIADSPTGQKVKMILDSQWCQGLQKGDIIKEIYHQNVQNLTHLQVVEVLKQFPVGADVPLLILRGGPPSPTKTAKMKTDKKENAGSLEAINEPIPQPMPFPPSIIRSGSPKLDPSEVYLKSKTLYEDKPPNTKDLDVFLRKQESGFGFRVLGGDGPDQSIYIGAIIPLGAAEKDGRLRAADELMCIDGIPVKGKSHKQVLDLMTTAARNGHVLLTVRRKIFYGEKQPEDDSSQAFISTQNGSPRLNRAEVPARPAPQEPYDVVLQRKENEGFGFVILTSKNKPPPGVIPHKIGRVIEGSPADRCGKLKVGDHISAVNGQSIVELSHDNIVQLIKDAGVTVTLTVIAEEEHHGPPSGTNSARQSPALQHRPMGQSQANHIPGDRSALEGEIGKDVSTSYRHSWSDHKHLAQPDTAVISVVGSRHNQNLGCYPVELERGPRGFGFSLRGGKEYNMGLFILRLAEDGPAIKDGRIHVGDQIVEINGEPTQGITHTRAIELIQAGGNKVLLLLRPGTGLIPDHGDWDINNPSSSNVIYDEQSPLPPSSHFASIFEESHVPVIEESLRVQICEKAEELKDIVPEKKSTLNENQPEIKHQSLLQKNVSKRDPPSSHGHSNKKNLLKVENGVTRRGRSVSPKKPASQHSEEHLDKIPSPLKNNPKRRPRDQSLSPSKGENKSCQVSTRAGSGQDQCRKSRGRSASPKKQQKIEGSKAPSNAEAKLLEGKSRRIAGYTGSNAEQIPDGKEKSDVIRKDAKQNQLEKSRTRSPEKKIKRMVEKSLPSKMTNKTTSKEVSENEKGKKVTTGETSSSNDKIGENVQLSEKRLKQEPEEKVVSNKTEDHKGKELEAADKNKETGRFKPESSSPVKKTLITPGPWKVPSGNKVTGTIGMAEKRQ

Chain of MAGI2-4 (Q86UL8 whole entry): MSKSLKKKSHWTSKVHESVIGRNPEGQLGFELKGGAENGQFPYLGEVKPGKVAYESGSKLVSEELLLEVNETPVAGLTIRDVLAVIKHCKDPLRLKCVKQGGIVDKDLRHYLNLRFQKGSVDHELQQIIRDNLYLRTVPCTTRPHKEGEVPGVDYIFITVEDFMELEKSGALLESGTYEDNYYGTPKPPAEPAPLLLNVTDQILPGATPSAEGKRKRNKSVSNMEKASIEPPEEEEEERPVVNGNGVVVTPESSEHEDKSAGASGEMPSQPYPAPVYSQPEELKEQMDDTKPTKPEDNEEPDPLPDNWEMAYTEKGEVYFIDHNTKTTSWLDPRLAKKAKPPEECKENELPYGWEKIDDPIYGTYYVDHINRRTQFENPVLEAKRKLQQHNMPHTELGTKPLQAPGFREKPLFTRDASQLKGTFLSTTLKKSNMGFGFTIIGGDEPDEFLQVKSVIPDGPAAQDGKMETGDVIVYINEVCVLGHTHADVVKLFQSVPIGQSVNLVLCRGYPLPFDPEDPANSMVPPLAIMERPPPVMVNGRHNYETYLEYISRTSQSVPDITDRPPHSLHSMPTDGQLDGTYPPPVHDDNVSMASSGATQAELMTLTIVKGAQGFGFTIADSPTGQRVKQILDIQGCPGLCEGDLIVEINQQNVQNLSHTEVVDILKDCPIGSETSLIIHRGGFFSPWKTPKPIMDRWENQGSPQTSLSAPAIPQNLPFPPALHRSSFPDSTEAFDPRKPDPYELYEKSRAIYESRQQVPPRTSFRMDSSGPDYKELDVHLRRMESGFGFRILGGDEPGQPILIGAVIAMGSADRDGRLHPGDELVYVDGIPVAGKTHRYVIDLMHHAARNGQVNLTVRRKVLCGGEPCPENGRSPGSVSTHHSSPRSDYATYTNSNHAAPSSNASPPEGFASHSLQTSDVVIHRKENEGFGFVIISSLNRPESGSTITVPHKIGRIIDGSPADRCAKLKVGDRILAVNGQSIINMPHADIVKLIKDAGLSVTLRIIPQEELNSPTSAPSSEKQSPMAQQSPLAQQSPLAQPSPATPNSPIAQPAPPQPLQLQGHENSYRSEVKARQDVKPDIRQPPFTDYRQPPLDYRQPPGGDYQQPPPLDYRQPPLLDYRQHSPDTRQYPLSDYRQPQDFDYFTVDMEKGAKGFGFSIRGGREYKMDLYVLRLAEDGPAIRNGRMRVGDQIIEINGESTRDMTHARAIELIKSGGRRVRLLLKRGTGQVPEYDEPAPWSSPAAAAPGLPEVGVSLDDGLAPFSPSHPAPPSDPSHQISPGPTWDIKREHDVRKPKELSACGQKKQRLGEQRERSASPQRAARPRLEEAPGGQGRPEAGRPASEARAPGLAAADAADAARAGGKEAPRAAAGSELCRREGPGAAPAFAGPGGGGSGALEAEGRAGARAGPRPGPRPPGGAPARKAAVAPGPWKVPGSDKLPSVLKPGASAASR

Structure (SMILES)	BI (SDCBP PDZ 1)	BI (INADL-3)	LogKD (INADL-3)	BI (LNX2-2)	LogKD (LNX2-2)	BI (MAGI2-4)	LogKD (MAGI2-4)	BI (MAGI3-1)	LogKD (MAGI3-1)	BI (MAGI3-6)	LogKD (MAGI3-6)	Kd (LNX2-2)	Kd (MAGI3-6)
CC[C@H](C)[C@H](NC(=O)[C@H](CCC(N)=O)NC(=O)[C@@H](NC(=O)[C@H](Cc1c[nH]cn1)NC(=O)[C@H](CCC(N)=O)NC(=O)[C@H](CC(=O)O)NC(=O)[C@H](CCC(=O)O)NC(=O)[C@H](CC(=O)O)NC(=O)CCC(=O)NCCCOCCOCCOCCCNC(=O)CCCC[C@@H]1SC[C@@H]2NC(=O)N[C@@H]21)[C@@H](C)O)C(=O)N[C@H](C(=O)N[C@@H](CCCCN)C(=O)N[C@H](C(=O)O)C(C)C)[C@@H](C)O [PTEN_11]	-0.001	-0.001	3.519	-0.039	3.519	0.06	3.519	-0.011	3.519	0.071	3.519		
CC[C@H](C)[C@H](NC(=O)[C@H](CCC(N)=O)NC(=O)[C@@H](NC(=O)[C@H](Cc1c[nH]cn1)NC(=O)[C@H](CCC(N)=O)NC(=O)[C@H](CC(=O)O)NC(=O)[C@H](CCC(=O)O)NC(=O)[C@H](CC(=O)O)NC(=O)CCC(=O)NCCCOCCOCCOCCCNC(=O)CCCC[C@@H]1SC[C@@H]2NC(=O)N[C@@H]21)[C@@H](C)O)C(=O)N[C@H](C(=O)N[C@@H](CCCCNC(C)=O)C(=O)N[C@H](C(=O)O)C(C)C)[C@@H](C)O [PTEN_Ac]	-0.057	-0.021	3.605	0.68		0.1	3.605			0.251		11.9 µM	80.6 µM
CC[C@H](C)[C@H](NC(=O)[C@H](CCC(N)=O)NC(=O)[C@@H](NC(=O)[C@H](Cc1c[nH]cn1)NC(=O)[C@H](CCC(N)=O)NC(=O)[C@H](CC(=O)O)NC(=O)[C@H](CCC(=O)O)NC(=O)[C@H](CC(=O)O)NC(=O)[C@H](Cc1ccccc1)NC(=O)[C@@H]1CCCN1C(=O)CCC(=O)NCCCOCCOCCOCCCNC(=O)CCCC[C@@H]1SC[C@@H]2NC(=O)N[C@@H]21)[C@@H](C)O)C(=O)N[C@H](C(=O)N[C@@H](CCCCN)C(=O)N[C@H](C(=O)O)C(C)C)[C@@H](C)O [PTEN_13] ({X1-Suc}-PFDEDQHTQITKV-OH)	0.009	0.031		0.136		-0.036	3.826	-0.006		0.044	3.826		
CC[C@H](C)[C@H](NC(=O)[C@H](CCC(N)=O)NC(=O)[C@@H](NC(=O)[C@H](Cc1c[nH]cn1)NC(=O)[C@H](CCC(N)=O)NC(=O)[C@H](CC(=O)O)NC(=O)[C@H](CCC(=O)O)NC(=O)[C@H](CC(=O)O)NC(=O)CCC(=O)NCCCOCCOCCOCCCNC(=O)CCCC[C@@H]1SC[C@@H]2NC(=O)N[C@@H]21)[C@@H](C)O)C(=O)N[C@H](C(=O)N[C@@H](CCCNC(=N)N)C(=O)N[C@H](C(=O)O)C(C)C)[C@@H](C)O [PTEN_KR] ({X1-Suc}-DEDQHTQITRV-OH)	-0.006	-0.042	3.655	0.256		0.116		-0.004	3.655	0.067	3.655	69.7 µM	
